According to PubChem BioAssay (NCI):
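Compound exposure: 48 hours, 5 concentrations, 96-well plates. GI50 is the concentration that inhibits growth by half. TGI: total growth inhibition.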

How the values were obtained:
Assay in all cases: DTP human tumour cell line panel, 48 h
HL-60(TB) leukemia = test system: HL-60(TB) leukemia
K-562 leukemia = test system: K-562 leukemia
KM12 colon = test system: KM12 colon
OVCAR-3 ovarian = test system: OVCAR-3 ovarian
OVCAR-4 ovarian = test system: OVCAR-4 ovarian
RPMI-8226 leukemia = test system: RPMI-8226 leukemia
RXF 393 renal = test system: RXF 393 renal
SF-268 CNS = test system: SF-268 CNS
SK-OV-3 ovarian = test system: SK-OV-3 ovarian
SN12C renal = test system: SN12C renal

SMILES | TGI (HL-60(TB) leukemia) [µM] | TGI (K-562 leukemia) [µM] | TGI (KM12 colon) [µM] | TGI (OVCAR-3 ovarian) [µM] | TGI (OVCAR-4 ovarian) [µM] | TGI (RPMI-8226 leukemia) [µM] | TGI (RXF 393 renal) [µM] | TGI (SF-268 CNS) [µM] | TGI (SK-OV-3 ovarian) [µM] | TGI (SN12C renal) [µM] | GI50 (HL-60(TB) leukemia) [µM] | GI50 (K-562 leukemia) [µM] | GI50 (KM12 colon) [µM] | GI50 (OVCAR-3 ovarian) [µM] | GI50 (OVCAR-4 ovarian) [µM] | GI50 (RPMI-8226 leukemia) [µM] | GI50 (RXF 393 renal) [µM] | GI50 (SF-268 CNS) [µM] | GI50 (SK-OV-3 ovarian) [µM] | GI50 (SN12C renal) [µM]
Fc1cccc(Cl)c1/C=N\N=C1c2ccccc2-c2ccccc21 | > 100 | > 100 | > 100 | > 100 | > 100 | > 100 | > 100 | > 100 | > 100 | > 100 | – | – | – | – | – | – | – | – | – | –
Nc1ccc(S(=O)(=O)NCc2nccs2)cc1 | 44 | 82.8 | 45 | > 100 | 95.7 | 56.1 | > 100 | 46.3 | > 100 | 37.8 | – | – | – | – | – | – | – | – | – | –
O=Cc1ccc(-c2cccs2)s1 | > 68.1 | 46.4 | > 100 | 58.1 | > 77 | > 100 | 65.3 | > 100 | > 100 | > 100 | – | – | – | – | – | – | – | – | – | –
COC(=O)c1c(-c2ccccc2)sc(-c2cccc3ccccc23)c1C(=O)OC | > 100 | > 100 | > 100 | > 100 | > 100 | > 100 | > 100 | > 100 | > 100 | > 100 | – | – | – | – | – | – | – | – | – | –
CC1CCN(CC(=O)N2c3ccccc3Sc3cc4ccccc4cc32)CC1 | > 100 | > 100 | > 100 | > 100 | > 100 | > 100 | > 100 | > 100 | > 100 | > 100 | – | – | – | – | – | – | – | – | – | –
C=C=C(C(=O)OC)S(=O)c1ccc([N+](=O)[O-])cc1[N+](=O)[O-] (centres undefined) | 45.3 | 46.3 | > 72 | 63.1 | 63.6 | 55.1 | > 68 | > 74.6 | > 100 | 49 | – | – | – | – | – | – | – | – | – | –
Cc1cc(N/N=C/c2nc(-c3ccc(Cl)cc3)oc2C)c2cc(Cl)ccc2n1 | 4.82 | 2.56 | 4.6 | 3.45 | 3.33 | 5.21 | 15.8 | 11.2 | 12.8 | 4.16 | 1.98 | 0.571 | 1.97 | 1.87 | 1.68 | 2.07 | 3.57 | 3.15 | 3.54 | 1.94
N#C[C@@H]1C(n2ccc(N)nc2=O)O[C@H](CO)[C@H]1O (some centres undefined) | > 100 | > 100 | > 100 | > 100 | > 100 | > 100 | > 100 | > 100 | > 100 | > 100 | 29.4 | 19.6 | > 100 | > 100 | > 100 | > 100 | > 100 | 22.3 | 39.6 | 9.69
COc1cc(Cn2c(-c3nonc3N)nc3ccccc32)ccc1C | 50.8 | > 100 | > 100 | 0.906 | > 95.2 | > 100 | 3.35 | > 100 | 32 | > 100 | 0.345 | 0.375 | 0.468 | 0.328 | 0.731 | 0.493 | 0.304 | 0.825 | 0.493 | 3.69
C=C(C=O)CCCC(C)[C@@H]1CCC23CC12CCC1[C@@]2(C)CCC(OC(C)=O)C(C)(C)C2CC(OC2OC(COC(C)=O)C(O)C(O)C2O)[C@]13C (some centres undefined) | 2.04 | 6.78 | 9.53 | 8.21 | 11.1 | 3.01 | 11.7 | 12.3 | 12 | 5.77 | – | – | – | – | – | – | – | – | – | –
COC(=O)c1nc(N)[nH]c(=O)c1CCCCCc1c(C(=O)OC)nc(N)[nH]c1=O | > 50 | > 50 | > 50 | > 50 | > 50 | > 50 | > 50 | > 50 | > 50 | > 50 | – | – | – | – | – | – | – | – | – | –
Nc1nc(CCC(=O)Nc2cccc(C(F)(F)F)c2)cc(-c2ccc3ccccc3c2)n1 | > 100 | > 100 | > 100 | > 100 | > 100 | > 100 | > 100 | > 100 | > 100 | > 100 | – | – | – | – | – | – | – | – | – | –
CC(C)[C@H]1C(=O)N[C@@H](CCCN=C(N)N)C(=O)NCC(=O)N[C@@H](CC(=O)O)C(=O)N[C@H](Cc2ccccc2)C(=O)N1C | > 100 | > 100 | > 100 | > 100 | > 100 | > 100 | > 100 | > 100 | > 100 | > 25.3 | > 100 | > 100 | > 100 | > 100 | > 100 | > 100 | 2.63 | 7.07 | > 100 | 2.33
COC(=O)C1=C(CS(=O)c2ccccc2[N+](=O)[O-])ON(C)C1c1ccccc1 (centres undefined) | 38.6 | 78 | > 100 | > 100 | > 100 | > 100 | 71.1 | 94.6 | > 100 | 42.6 | – | – | – | – | – | – | – | – | – | –
Cn1c(=O)c2c(ncn2CN2CCN(Cn3cnc4c3c(=O)n(C)c(=O)n4C)CC2)n(C)c1=O | 54 | > 100 | > 100 | > 100 | > 100 | 49.5 | 44.1 | > 100 | > 100 | > 100 | – | – | – | – | – | – | – | – | – | –
O=[N+]([O-])c1ccc2c(c1)[O][Sn]([I])([I])[O]2 | > 100 | > 100 | > 100 | > 100 | > 100 | > 100 | > 100 | > 100 | > 100 | > 100 | > 100 | > 100 | > 100 | > 100 | > 100 | 44.6 | 52.1 | > 100 | > 100 | > 100
COC1CC(OC(=O)c2ccccc2)C(OC(=O)c2ccccc2)C(C)O1 (centres undefined) | > 100 | > 100 | > 100 | > 100 | – | > 100 | > 100 | > 100 | > 100 | > 100 | – | – | – | – | – | – | – | – | – | –
